# Experimental data: ChEMBL document CHEMBL5329192, “Synthesis, biological activities, and future perspectives of steroidal monocyclic pyridines” (RSC Med Chem, 2023)
# Experiments:
# [1] = system: Rattus norvegicus; assay: Anti-androgen activity against albino rat assessed as mass gain of prostate gland at 0.1 mg/kg, sc administered for 7 days; type: functional; settings: time 7 day
# [2] = Acute toxicity in ip dosed albino rat administered twice daily for 14 days; type: organism-based; settings: in vivo, time 14 day
# [3] = system: Rattus norvegicus; assay: Anti-anabolic activity against albino rat assessed as mass gain of levator ani-muscle at 0.1 mg/kg, sc administered for 7 days; type: functional; settings: time 7 day
# [4] = system: ECa-109 cell line; assay: Antiproliferative activity against human EC109 cells assessed as reduction in cell proliferation incubated for 72 hrs by MTT assay; type: functional, cell-based; settings: ECa-109, 72 h
# [5] = system: EC9706; assay: Antiproliferative activity against human EC9706 assessed as reduction in cell proliferation incubated for 72 hrs by MTT assay; type: functional, cell-based; settings: EC9706, 72 h
# [6] = system: MGC-803; assay: Antiproliferative activity against human MGC-803 cells assessed as cell growth inhibition measured after 48 hrs by MTT assay; type: functional, cell-based; settings: MGC-803, 48 h
# [7] = species on record: Rattus norvegicus; assay: Ratio of anti-anabolic activity against albino rat assessed as reduction in mass of levator ani-muscle to anti-androgenic activity against albino rat assessed as mass gain of prostate gland; type: functional
# [8] = system: HeLa; assay: Antiproliferative activity against human HeLa cells assessed as reduction in cell growth incubated for 48 hrs by MTT assay; type: functional, cell-based
# [9] = system: MCF7; assay: Cytotoxicity against human MCF7 cells assessed as reduction in cell viability incubated for 72 hrs by MTT assay; type: functional, cell-based; settings: MCF7, 72 h
# [10] = system: HepG2; assay: Antiproliferative activity against human HepG2 cells assessed as reduction in cell growth incubated for 48 hrs by MTT assay; type: functional, cell-based; settings: HepG2, 48 h
# [11] = system: SK-OV-3; assay: Antiproliferative activity against human SK-OV-3 cells assessed as reduction in cell growth incubated for 48 hrs by MTT assay; type: functional, cell-based; settings: SK-OV-3, 48 h
# [12] = system: MGC-803; assay: Cytotoxicity against human MGC-803 cells assessed as reduction in cell viability incubated for 72 hrs by MTT assay; type: functional, cell-based; settings: MGC-803, 72 h
# [13] = system: MCF7; assay: Antiproliferative activity against human MCF7 cells assessed as reduction in cell growth incubated for 48 hrs by MTT assay; type: functional, cell-based; settings: MCF7, 48 h
# [14] = system: A549; assay: Cytotoxicity against human A549 cells assessed as reduction in cell viability incubated for 72 hrs by MTT assay; type: functional, cell-based; settings: A549, 72 h
# [15] = system: PC-3; assay: Cytotoxicity against human PC-3 cells assessed as reduction in cell viability incubated for 72 hrs by MTT assay; type: functional, cell-based; settings: PC-3, 72 h
# [16] = Cytotoxicity against human RWPE-1 cells assessed as reduction in cell viability incubated for 48 hrs by SRB assay; type: toxicity, cell-based
# [17] = system: PC-3; assay: Cytotoxicity against human PC-3 cells assessed as reduction in cell viability incubated for 48 hrs by SRB assay; type: toxicity, cell-based; settings: PC-3, 48 h
# [18] = system: EC9706; assay: Cytotoxicity against human EC9706 cells assessed as reduction in cell growth incubated for 48 hrs by MTT assay; type: functional, cell-based; settings: EC9706, 48 h
# [19] = system: ECa-109 cell line; assay: Cytotoxicity against human EC109 cells assessed as reduction in cell growth incubated for 48 hrs by MTT assay; type: functional, cell-based; settings: ECa-109, 48 h
# [20] = system: MGC-803; assay: Cytotoxicity against human MGC-803 cells assessed as reduction in cell growth incubated for 48 hrs by MTT assay; type: functional, cell-based; settings: MGC-803, 48 h
# [21] = Cytotoxicity against human HEp-2 cells assessed as reduction in cell viability incubated for 48 hrs by MTT assay; type: toxicity, cell-based
# [22] = system: Respiratory syncytial virus; assay: Antiviral activity against Respiratory syncytial virus infected in human HEp-2 cells assessed as inhibition of virus-induced cytopathic effect measured after 6 days by CellTiter-Glo assay; type: functional, organism-based; settings: HEp-2, 144 h
# [23] = Selectivity index, ratio of CC50 for cytotoxicity against human HEp-2 cells to EC50 for antiviral activity against Respiratory syncytial virus infected in human HEp-2 cells; type: toxicity, cell-based; settings: read-out: Ratio CC50/EC50
# [24] = Antiproliferative activity against human […] cells assessed as reduction in cell viability by MTT assay; type: functional, cell-based
# [25] = system: HeLa; assay: Antiproliferative activity against human HeLa cells assessed as reduction in cell viability by MTT assay; type: functional, cell-based
structure (smiles),measurement,setting,value
C[C@]12CCC(=O)C[C@@H]1CC[C@@H]1[C@@H]2CC[C@]2(C)[C@@H](O)CC[C@@H]12 [STANOLONE],Activity,[1],0.2 g
same,LD50 at 336 h,[2],3410 mg/kg
same,Activity,[3],0.18 g
COC(=O)c1cc2c(nc1C)[C@@]1(C)CC[C@H]3[C@@H](CC=C4C[C@@H](OC(C)=O)CC[C@@]43C)[C@@H]1C2,EC50,[4],17.1 µM
same,IC50,[5],26.5 µM
same,IC50,[6],16.7 µM
C[C@]12CC[C@H](O)C[C@@H]1CC[C@@H]1[C@@H]2CC[C@]2(C)c3c(C#N)c(S)nc(-c4ccccc4)c3C[C@@H]12,Activity,[1],0.421 g
same,LD50 at 336 h,[2],4910 mg/kg
same,Activity,[3],0.577 g
same,Ratio,[7],1.37
O=c1[nH]cc(F)c(=O)[nH]1 [FLUOROURACIL],EC50,[4],21.1 µM
same,IC50,[5],2.45 µM
same,IC50,[8],18.8 µM
same,IC50,[9],10 µM
same,IC50,[10],66.8 µM
same,IC50,[11],25 µM
same,IC50,[12],15.7 µM
same,IC50,[6],26.4 µM
same,IC50,[13],25.4 µM
same,IC50,[14],5.7 µM
same,IC50,[15],6.7 µM
CCOC(=O)c1cc2c(nc1-c1ccccc1)[C@@]1(C)CC[C@H]3[C@@H](CC=C4C[C@@H](OC(C)=O)CC[C@@]43C)[C@@H]1C2,IC50 at 48 h,[16],375 µM
same,IC50,[17],437 µM
CCOC1(OCC)NC(c2ccc(F)cc2)=C2C[C@H]3[C@@H]4CC[C@H]5C[C@@H](O)CC[C@]5(C)[C@H]4CC[C@]3(C)C2=C1C#N,Activity,[1],0.432 g
same,LD50 at 336 h,[2],4900 mg/kg
same,Activity,[3],0.622 g
same,Ratio,[7],1.44
CCOC(=O)c1cc2c(nc1-c1ccccc1)[C@@]1(C)CC[C@H]3[C@@H](CC=C4C[C@@H](O)CC[C@@]43C)[C@@H]1C2,IC50 at 48 h,[16],189 µM
same,IC50,[17],197 µM
C[C@]12CC[C@H](O)C[C@@H]1CC[C@@H]1[C@@H]2CC[C@]2(C)c3c(c(-c4ccc(Cl)cc4)[nH]c(=O)c3C#N)C[C@@H]12,Activity,[1],0.234 g
same,LD50 at 336 h,[2],4920 mg/kg
same,Activity,[3],0.314 g
same,Ratio,[7],1.34
CC(=O)O[C@H]1CC[C@@]2(C)C(=CC[C@@H]3[C@@H]2CC[C@]2(C)c4nc(N)c(C#N)cc4C[C@@H]32)C1,IC50,[18],58.4 µM
same,IC50,[19],20.5 µM
same,IC50,[20],16.3 µM
CCOC(=O)c1cc2c(nc1C(=O)OCC)[C@@]1(C)CC[C@H]3[C@@H](CC=C4C[C@@H](OC(C)=O)CC[C@@]43C)[C@@H]1C2,IC50 at 48 h,[16],218 µM
same,IC50,[17],100 µM
CCOC(=O)c1cc2c(nc1C)[C@@]1(C)CC[C@H]3[C@@H](CC=C4C[C@@H](OC(C)=O)CC[C@@]43C)[C@@H]1C2,EC50,[4],16.1 µM
same,IC50,[5],34.7 µM
same,IC50,[6],12.2 µM
CC(=O)O[C@H]1CC[C@@]2(C)C(=CC[C@H]3[C@@H]4CC[C@H](c5cc(-c6ccccc6F)c(C#N)c(N)n5)[C@@]4(C)CC[C@@H]32)C1,CC50 at 48 h,[21],288 µM
same,EC50,[22],12.4 µM
same,selectivity ratio,[23],23.2
CCOC1(OCC)NC(c2ccccc2)=C2C[C@H]3[C@@H]4CC[C@H]5C[C@@H](O)CC[C@]5(C)[C@H]4CC[C@]3(C)C2=C1C#N,Activity,[1],0.345 g
same,LD50 at 336 h,[2],4900 mg/kg
same,Activity,[3],0.486 g
same,Ratio,[7],1.41
CC(=O)O[C@H]1CC[C@@]2(C)C(=CC[C@@H]3[C@@H]2CC[C@]2(C)c4nc(C)c(C(C)=O)cc4C[C@@H]32)C1,EC50,[4],14.3 µM
same,IC50,[5],30.6 µM
same,IC50,[6],10.3 µM
CCOC(=O)c1cc2c(cn1)C[C@H]1[C@@H]3CC=C4C[C@@H](OC(C)=O)CC[C@]4(C)[C@H]3CC[C@]21C,IC50,[24],≥ 100 µM
same,IC50,[25],≥ 100 µM
CCOC(=O)c1cc2c(nc1C(=O)OCC)[C@@]1(C)CC[C@H]3[C@@H](CC=C4C[C@@H](O)CC[C@@]43C)[C@@H]1C2,IC50 at 48 h,[16],501 µM
same,IC50,[17],95.4 µM
CCOc1nc(-c2ccccc2)c2c(c1C#N)[C@@]1(C)CC[C@H]3[C@@H](CC[C@H]4C[C@@H](O)CC[C@@]43C)[C@@H]1C2,Activity,[1],0.321 g
same,LD50 at 336 h,[2],4890 mg/kg
same,Activity,[3],0.494 g
same,Ratio,[7],1.54
CCCCc1cc2c(cn1)C[C@H]1[C@@H]3CC=C4C[C@@H](OC(C)=O)CC[C@]4(C)[C@H]3CC[C@]21C,IC50,[24],≥ 100 µM
same,IC50,[25],≥ 100 µM
C[C@]12CC[C@H](O)C[C@@H]1CC[C@@H]1[C@@H]2CC[C@]2(C)c3c(C#N)c(S)nc(-c4ccc(Cl)cc4)c3C[C@@H]12,Activity,[1],0.345 g
same,LD50 at 336 h,[2],4910 mg/kg
same,Activity,[3],0.48 g
same,Ratio,[7],1.39
C[C@]12CC[C@H](O)CC1=CC[C@@H]1[C@@H]2CC[C@]2(C)C(c3cccnc3)=CC[C@@H]12 [ABIRATERONE],IC50 at 48 h,[16],645 µM
same,IC50,[17],91 µM
same,IC50,[15],17.2 µM
CC(=O)O[C@H]1CC[C@@]2(C)C(=CC[C@@H]3[C@@H]2CC[C@]2(C)c4cc(-c5ccccc5)ncc4C[C@@H]32)C1,IC50,[24],≥ 100 µM
same,IC50,[25],≥ 100 µM
CCOc1nc(-c2ccc(F)cc2)c2c(c1C#N)[C@@]1(C)CC[C@H]3[C@@H](CC[C@H]4C[C@@H](O)CC[C@@]43C)[C@@H]1C2,Activity,[1],0.123 g
same,LD50 at 336 h,[2],4890 mg/kg
same,Activity,[3],0.191 g
same,Ratio,[7],1.55
CCOC(=O)c1cc2c(nc1CCl)[C@@]1(C)CC[C@H]3[C@@H](CC=C4C[C@@H](OC(C)=O)CC[C@@]43C)[C@@H]1C2,EC50,[4],15.5 µM
same,IC50,[5],37.6 µM
same,IC50,[6],9.84 µM
CC(=O)O[C@H]1CC[C@@]2(C)C(=CC[C@H]3[C@@H]4CC[C@H](c5cc(-c6ccnc(Br)c6)c(C#N)c(N)n5)[C@@]4(C)CC[C@@H]32)C1,CC50 at 48 h,[21],539 µM
same,EC50,[22],3.13 µM
same,selectivity ratio,[23],172
NC(=O)c1ncn([C@@H]2O[C@H](CO)[C@@H](O)[C@H]2O)n1 [RIBAVIRIN],CC50 at 48 h,[21],653 µM
same,EC50,[22],20.1 µM
same,selectivity ratio,[23],32.5
CC(=O)O[C@H]1CC[C@@]2(C)C(=CC[C@@H]3[C@@H]2CC[C@]2(C)c4cc(-c5ccc(C)cc5)ncc4C[C@@H]32)C1,IC50,[24],≥ 100 µM
same,IC50,[25],≥ 100 µM
C[C@]12CC[C@H]3[C@@H](CCC4=CC(=O)CC[C@@]43C)[C@@H]1CC[C@@H]2O [TESTOSTERONE],Activity,[1],0.76 g
same,LD50 at 336 h,[2],2750 mg/kg
same,Activity,[3],0.204 g
same,Ratio,[7],0.27
COc1cccc2c1C(=O)c1c(O)c3c(c(O)c1C2=O)C[C@@](O)(C(=O)CO)C[C@@H]3O[C@H]1C[C@H](N)[C@H](O)[C@H](C)O1 [DOXORUBICIN],IC50,[24],9 µM
CC(=O)O[C@H]1CC[C@@]2(C)C(=CC[C@@H]3[C@@H]2CC[C@]2(C)c4cc(-c5ccc(F)cc5)ncc4C[C@@H]32)C1,IC50,[24],≥ 100 µM
same,IC50,[25],≥ 100 µM
CCCc1cc2c(cn1)C[C@H]1[C@@H]3CC=C4C[C@@H](OC(C)=O)CC[C@]4(C)[C@H]3CC[C@]21C,IC50,[24],≥ 100 µM
same,IC50,[25],≥ 100 µM
CC(=O)O[C@H]1CC[C@@]2(C)C(=CC[C@H]3[C@@H]4CC[C@H](c5cc(-c6ccccc6Cl)c(C#N)c(N)n5)[C@@]4(C)CC[C@@H]32)C1,CC50 at 48 h,[21],303 µM
same,EC50,[22],14.1 µM
same,selectivity ratio,[23],21.4
